Measurements reported in publication PMC5820046 (Internal Medicine, 2017).
Read-outs that look alike come from different tables or passages of the source.

Key:
patient [1] = conditions: present case, rapid type
[2] = healthy volunteers; DAP 6 mg/kg every 24 hours; cited from earlier work
[3] = present case, DAP 7 mg/kg every 48 hours, chronic renal failure, HPLC
patients [4] = conditions: cited from earlier work
patients [5] = conditions: phase III clinical trials; cited from earlier work
patient [6] = conditions: present case
patient [7] = conditions: present case (case 37)
T cells = conditions: present case
plasma protein [8] = conditions: healthy volunteers, escalating dose levels; cited from earlier work
plasma protein [9] = experiment: Plasma protein binding of DAP, present case; type: in vitro ADME, human; conditions: patient plasma, DAP 7 mg/kg every 48 hours
patients [10] = conditions: FDA adverse event reporting system, 2004 to 2010; cited from earlier work

CCCCCCCCCC(=O)N[C@@H](Cc1c[nH]c2ccccc12)C(=O)N[C@H](CC(N)=O)C(=O)N[C@@H](CC(=O)O)C(=O)N[C@@H]1C(=O)NCC(=O)N[C@@H](CCCN)C(=O)N[C@@H](CC(=O)O)C(=O)N[C@H](C)C(=O)N[C@@H](CC(=O)O)C(=O)NCC(=O)N[C@H](CO)C(=O)N[C@@H]([C@H](C)CC(=O)O)C(=O)N[C@@H](CC(=O)c2ccccc2N)C(=O)O[C@@H]1C [DAP, Daptomycin]
intracutaneous test reaction (patient [1]): positive | intracutaneous test reaction (patient [1]; listed as daptomycin): positivity | median plasma DAP Cmin [2]: 9130 ng/mL | median plasma DAP Cmin [3]: 27400 ng/mL | DAP Cmin associated with an increased probability of CK elevation (patients [4]): 24300 ng/mL | myopathic symptoms, patients (patients [5]): 0.2% | serum creatinine kinase (CK) elevation, patients (patients [5]): 2.8% | Skin tests, prick-puncture administration and patch tests, reaction (patient [6]): negative | Imaging findings (patient [7]; DAP 7 mg/kg): Bilateral, peripheral nodules and patchy consolidations | Prognosis (patient [7]; initial treatment withdrawal): Recover | drug lymphocyte stimulation test (DLST) reaction (T cells): negative | percentage of DAP plasma protein binding (plasma protein [8]): consistent across dose levels | percentage of plasma protein-bound DAP (plasma protein [9]): 87.8% | patients who developed DAP-associated EP (patients [10]): 63 patients
